One assay deals with T1, PI3Kγ (p120γ) (Homo sapiens, UniProt P48736).
T1 construct: purchased Promega V1761
In words: Inhibition of PI3K kinase activity (ADP Glo), PI3Kγ. The note with it: Table 3, p120γ, read-out: biochemical potency (PI3Kγ IC50). The method in brief: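 IC50 values come from a 4-parameter nonlinear fit of ADP-Glo luminescence, which measures ADP produced as PIP2 is phosphorylated to PIP3. The p120γ enzyme (2× stock 8 nM) sat with compound 1 h at rt before substrate (2× stocks: 50 μM ATP, 0.1 mg/ml PIP2) was added. Phosphorylation then proceeded 60 min at rt.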

The target in another assay is T2, PI3Kγ (Homo sapiens, UniProt P48736).
T2 construct: host or cells: THP-1
In words: PI3Kγ cellular assay in THP-1 cells (AKT pS473 AlphaLISA). It counts as cell-based. The note with it: Table 3, rhMCP-1 stimulated AKT pS473, read-out: cellular potency (PI3Kγ IC50). The gist of the method:
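Endogenous AKT S473 phosphorylation, detected by AlphaLISA in lysates, serves as the PI3Kγ activity read-out in stimulated, serum-starved THP-1 cells (1.8×10^5/well).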

Some results are limits rather than exact numbers.

T1 sequence (P48736 whole entry): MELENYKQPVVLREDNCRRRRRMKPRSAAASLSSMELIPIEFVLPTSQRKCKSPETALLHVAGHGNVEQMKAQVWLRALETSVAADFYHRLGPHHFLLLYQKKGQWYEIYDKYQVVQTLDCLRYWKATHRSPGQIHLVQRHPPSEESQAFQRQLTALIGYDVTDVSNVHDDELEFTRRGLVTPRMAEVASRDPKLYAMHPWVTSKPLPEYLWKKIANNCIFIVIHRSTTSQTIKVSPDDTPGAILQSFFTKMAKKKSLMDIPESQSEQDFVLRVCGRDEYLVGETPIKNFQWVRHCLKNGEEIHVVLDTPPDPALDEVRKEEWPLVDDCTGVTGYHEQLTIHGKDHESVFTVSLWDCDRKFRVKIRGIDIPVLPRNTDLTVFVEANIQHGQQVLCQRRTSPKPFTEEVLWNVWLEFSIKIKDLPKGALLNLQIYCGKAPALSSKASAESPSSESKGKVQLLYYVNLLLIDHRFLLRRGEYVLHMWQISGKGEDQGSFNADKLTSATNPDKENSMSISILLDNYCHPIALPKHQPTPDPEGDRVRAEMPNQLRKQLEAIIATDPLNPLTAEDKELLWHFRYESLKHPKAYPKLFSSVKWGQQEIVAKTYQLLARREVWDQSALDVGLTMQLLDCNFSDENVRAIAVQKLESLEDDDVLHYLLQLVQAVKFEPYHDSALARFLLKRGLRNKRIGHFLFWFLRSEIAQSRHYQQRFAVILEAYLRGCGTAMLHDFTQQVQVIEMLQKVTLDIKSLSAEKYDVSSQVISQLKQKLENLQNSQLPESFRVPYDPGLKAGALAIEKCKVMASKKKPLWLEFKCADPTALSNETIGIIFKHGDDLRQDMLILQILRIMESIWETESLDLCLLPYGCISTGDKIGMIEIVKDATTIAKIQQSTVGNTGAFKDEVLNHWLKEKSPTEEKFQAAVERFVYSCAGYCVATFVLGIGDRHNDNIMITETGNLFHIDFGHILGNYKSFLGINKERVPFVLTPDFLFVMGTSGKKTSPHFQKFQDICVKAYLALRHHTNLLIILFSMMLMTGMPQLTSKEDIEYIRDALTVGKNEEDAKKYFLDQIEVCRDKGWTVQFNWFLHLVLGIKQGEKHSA
T2 sequence (P48736 whole entry): as above

Broadly, the IC50 is the midpoint of a concentration-inhibition curve. Turning to `C[C@@H](C1CC1)N1Cc2cc(-c3ccn4nc(N)c(C(=O)NC5CCS(=O)(=O)CC5)c4n3)cc(C(F)(F)F)c2C1=O` [Example 347], the values for the IC50 at PI3Kγ (p120γ) and on PI3Kγ were < 100 nM and 100 to 1000 nM, respectively.

As to `C[C@@H](C1CC1)N1Cc2cc(-c3ccn4nc(N)c(C(=O)NC[C@H](O)CO)c4n3)cc(C(F)(F)F)c2C1=O` [Example 348], the IC50 on PI3Kγ (p120γ) is < 100 nM; at PI3Kγ it was 100 to 1000 nM.

For `C[C@@H](C1CC1)N1Cc2cc(-c3ccn4nc(N)c(C(=O)NC5CC5)c4n3)cc(C(F)(F)F)c2C1=O` [Example 349], the figures for the IC50 at PI3Kγ (p120γ) and at PI3Kγ were < 100 nM and 100 to 1000 nM, respectively.

As for `C[C@@H](C1CC1)N1Cc2cc(-c3ccn4nc(N)c(C(=O)Nc5ccnc(C#N)c5)c4n3)cc(C(F)(F)F)c2C1=O` [Example 350], the IC50 is < 100 nM on PI3Kγ (p120γ) and 100 to 1000 nM on PI3Kγ.

Take `C[C@@H](C1CC1)N1Cc2cc(-c3ccn4nc(N)c(C(=O)Nc5cncc(F)c5)c4n3)cc(C(F)(F)F)c2C1=O` [Example 351]: the IC50 on PI3Kγ (p120γ) was < 100 nM; on PI3Kγ it was 100 to 1000 nM.

Regarding `C[C@@H](C1CC1)N1Cc2cc(-c3ccn4nc(N)c(C(=O)NCCNS(C)(=O)=O)c4n3)cc(C(F)(F)F)c2C1=O` [Example 352], the IC50 was < 100 nM at PI3Kγ (p120γ) and 100 to 1000 nM at PI3Kγ.

Turning to `C[C@@H](C1CC1)N1Cc2cc(-c3ccn4nc(N)c(C(=O)N[C@@H](CO)C5CC5)c4n3)cc(C(F)(F)F)c2C1=O` [Example 353], the IC50 on PI3Kγ (p120γ) was < 100 nM; at PI3Kγ it was 100 to 1000 nM.

`C[C@@H](C1CC1)N1Cc2cc(-c3ccn4nc(N)c(C(=O)Nc5ccc(CC(F)(F)F)nc5)c4n3)cc(C(F)(F)F)c2C1=O` [Example 354]: the IC50 is < 100 nM at PI3Kγ (p120γ) and 100 to 1000 nM on PI3Kγ.

Turning to `COc1cncc(NC(=O)c2c(N)nn3ccc(-c4cc5c(c(C(F)(F)F)c4)C(=O)N([C@@H](C)C4CC4)C5)nc23)c1` [Example 355], the IC50 on PI3Kγ (p120γ) was < 100 nM; at PI3Kγ it was 100 to 1000 nM.

Turning to `C[C@@H](C1CC1)N1Cc2cc(-c3ccn4nc(N)c(C(=O)N[C@H]5CCCNC5)c4n3)cc(C(F)(F)F)c2C1=O` [Example 356], the IC50 on PI3Kγ (p120γ) was < 100 nM; on PI3Kγ, 100 to 1000 nM.

`C[C@@H](C1CC1)N1Cc2cc(-c3ccn4nc(N)c(C(=O)N[C@H]5CNC[C@H]5O)c4n3)cc(C(F)(F)F)c2C1=O` [Example 357]: the results for the IC50 on PI3Kγ (p120γ) and on PI3Kγ were < 100 nM and > 1000 nM, respectively.

On to `C[C@@H](C1CC1)N1Cc2cc(-c3ccn4nc(N)c(C(=O)N[C@@H]5CCC[C@H](N)C5)c4n3)cc(C(F)(F)F)c2C1=O` [Example 358], for which the IC50 on PI3Kγ (p120γ) is < 100 nM; on PI3Kγ it was 100 to 1000 nM.

`C[C@@H](C1CC1)N1Cc2cc(-c3ccn4nc(N)c(C(=O)N[C@H]5CNC[C@@H]5O)c4n3)cc(C(F)(F)F)c2C1=O` [Example 359]: the 50% inhibitory concentration (IC50) at PI3Kγ (p120γ) is < 100 nM; on PI3Kγ, > 1000 nM.

For `C[C@@H](C1CC1)N1Cc2cc(-c3ccn4nc(N)c(C(=O)N[C@@H]5CNC[C@H]5O)c4n3)cc(C(F)(F)F)c2C1=O` [Example 360], the IC50 at PI3Kγ (p120γ) is < 100 nM; at PI3Kγ it was > 1000 nM.

For `C[C@@H](C1CC1)N1Cc2cc(-c3ccn4nc(N)c(C(=O)N[C@@H](CO)C(F)(F)F)c4n3)cc(C(F)(F)F)c2C1=O` [Example 361], the IC50 at PI3Kγ (p120γ) is < 100 nM; on PI3Kγ, 100 to 1000 nM.

Regarding `C[C@@H](C1CC1)N1Cc2cc(-c3ccn4nc(N)c(C(=O)N[C@@H]5CCC[C@H](N(C)C)C5)c4n3)cc(C(F)(F)F)c2C1=O` [Example 362], the concentration for half-maximal inhibition (IC50) on PI3Kγ (p120γ) was < 100 nM; on PI3Kγ, 100 to 1000 nM.

In the case of `C[C@@H](C1CC1)N1Cc2cc(-c3ccn4nc(N)c(C(=O)Nc5ccccc5)c4n3)cc(C(F)(F)F)c2C1=O` [Example 363], the IC50 at PI3Kγ (p120γ) is < 100 nM; at PI3Kγ it was > 1000 nM.

Turning to `COCC(NC(=O)c1c(N)nn2ccc(-c3cc4c(c(C(F)(F)F)c3)C(=O)N([C@@H](C)C3CC3)C4)nc12)C(C)C` (some centres unmarked) [Example 364], the results for the IC50 on PI3Kγ (p120γ) and at PI3Kγ were < 100 nM and 100 to 1000 nM, respectively.

Regarding `C[C@@H](C1CC1)N1Cc2cc(-c3ccn4nc(N)c(C(=O)NC5CC5c5ccccc5)c4n3)cc(C(F)(F)F)c2C1=O` (some centres unmarked) [Example 365], the IC50 at PI3Kγ (p120γ) is < 100 nM; at PI3Kγ, 100 to 1000 nM.

With `C[C@@H](C1CC1)N1Cc2cc(-c3ccn4nc(N)c(C(=O)N[C@H]5CCC[C@@H](N)C5)c4n3)cc(C(F)(F)F)c2C1=O` [Example 366], the figures for the 50% inhibitory concentration (IC50) on PI3Kγ (p120γ) and on PI3Kγ were < 100 nM and > 1000 nM, respectively.

As for `C[C@@H](C1CC1)N1Cc2cc(-c3ccn4nc(N)c(C(=O)N[C@H]5CCC[C@H](N)C5)c4n3)cc(C(F)(F)F)c2C1=O` [Example 367], the IC50 was < 100 nM on PI3Kγ (p120γ) and > 1000 nM at PI3Kγ.

Take `C[C@@H](C1CC1)N1Cc2cc(-c3ccn4nc(N)c(C(=O)N[C@H]5CC[C@H](N)CC5)c4n3)cc(C(F)(F)F)c2C1=O` [Example 368]: the IC50 is < 100 nM on PI3Kγ (p120γ) and 100 to 1000 nM at PI3Kγ.

Values taken from US20230024302A1, “2,3,5-TRISUBSTITUTED PYRAZOLO[1,5-A]PYRIMIDINE COMPOUNDS” (Arcus Biosciences, Inc., priority 2019, published 2023).
